Laboratory results published in patent US7524847B2, “Fused 1,3-dihydro-imidazole ring compounds” (Eisai R&D Management Co., Ltd., priority 2002, dated 2009).
pIC50: −log10 of the molar value.

What was measured:
[1] = target: T1, DPP-IV obtained from pig kidney (Sus scrofa, UniProt P22411); test: Measurement of DPPIV-inhibiting activity (in vitro experiment); format: biochemical; details: DPP-IV from pig kidney 10 mU/mL, substrate Gly-Pro-p-nitroanilide 0.33 mM, 20 min preincubation, 20 min reaction, absorbance 405 nm
T1 construct: DPP-IV obtained from pig kidney; from tissue; host or cells: pig kidney
T1 sequence (P22411 whole entry): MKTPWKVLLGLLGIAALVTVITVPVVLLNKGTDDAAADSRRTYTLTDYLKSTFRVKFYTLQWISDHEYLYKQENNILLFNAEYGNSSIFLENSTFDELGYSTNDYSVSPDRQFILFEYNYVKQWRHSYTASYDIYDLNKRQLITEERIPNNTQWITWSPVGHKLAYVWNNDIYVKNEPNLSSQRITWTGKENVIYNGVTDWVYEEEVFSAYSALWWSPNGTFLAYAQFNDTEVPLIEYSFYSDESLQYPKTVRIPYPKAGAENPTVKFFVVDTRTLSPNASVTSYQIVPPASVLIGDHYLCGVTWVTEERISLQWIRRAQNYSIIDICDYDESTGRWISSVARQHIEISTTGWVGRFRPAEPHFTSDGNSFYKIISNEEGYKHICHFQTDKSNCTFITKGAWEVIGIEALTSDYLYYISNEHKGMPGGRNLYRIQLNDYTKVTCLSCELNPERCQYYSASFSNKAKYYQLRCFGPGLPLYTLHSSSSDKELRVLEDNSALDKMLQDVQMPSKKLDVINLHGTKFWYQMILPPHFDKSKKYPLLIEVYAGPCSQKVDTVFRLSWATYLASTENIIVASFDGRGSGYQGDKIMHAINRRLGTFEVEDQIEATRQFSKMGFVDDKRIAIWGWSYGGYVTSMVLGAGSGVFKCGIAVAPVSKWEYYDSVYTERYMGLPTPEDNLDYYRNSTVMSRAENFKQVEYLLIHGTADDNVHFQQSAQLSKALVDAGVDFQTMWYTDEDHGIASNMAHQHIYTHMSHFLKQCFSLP
Description: DPP-IV obtained from pig kidney was dissolved in a reaction buffer (50 mM Tris-HCl pH7.4, 0.1% BSA) at 10 mU/mL, and 110 μL of this was used. 15 μL of the drug obtained from the aforementioned Examples was added, and this was incubated at room temperature for 20 minutes, and then 25 μL of a 2 mM solution of Gly-Pro-p-nitroanilide (final concentration 0.33 mM) was added to start the enzymatic reaction. The reaction time was 20 minutes, and 1 N phosphoric acid solution (25 μL) was added to stop the reaction.

[2] = system: normal mice (male C57BL/6N); test: Effects on glucose tolerance in normal mice (in vivo experiment); details: 1 mg/kg oral, 30 min before oral glucose 2 g/kg; blood glucose AUC0-120; 0.5% MC group = 100%, NVP DPP728 (10 mg/kg) group = 0%; lower = better
Description: Animals: Male C57BL/6N mice (purchased from Japan Charles River) The test compounds were suspended in a 0.5% methylcellulose (MC) solution at the doses indicated below in Table 2. These test compounds and the NVP DPP728 (U.S. Pat. No. 6,011,155) suspension, or the 0.5% MC solution (the solvent control group), were administered orally at a dose of 10 mL/kg. 30 minutes later, a glucose solution was orally administered at a dose of 10 mL/kg. Glucose was orally administered at a dose of 2 g/kg. The tail vain of unanesthetized mice was cut with a razor blade to cause a small amount of bleeding immediately before administering the test substances or NVP DPP728, and immediately before, as well as 30, 60, and 120 minutes after, administration of the glucose solution. 10 μL of blood was collected, and this was mixed immediately with 0.6 M perchloric acid (140 μL). Glucose present in the supernatant obtained by centrifugation (1500 g, 10 minutes, 4° C., refrigerated centrifuge GS-6KR, Beckman) was measured using Glucose CII Test Wako (Wako Pure Chemicals). Results: In each of the groups to which 0.5% MC solution, NVP DPP728, and the test compounds were administered, the area under the curve of blood glucose vs. time was calculated over 0 to 120 minutes from the time of glucose administration (AUC0-120). Defining the AUC0-120 for the 0.5% MC solution-administered group as 100%, and the AUC0-120 for the NVP DPP728 (10 mg/kg)-administered group as 0%, the degree of improvement in glucose tolerance due to the test compound was calculated by the following equation: Degree of improvement in glucose tolerance (%)=(AUC0-120 of the test compound−AUC0-120 of the NVP DPP728 (10 mg/kg)-administered group)/(AUC0-120 of the 0.5% MC solution-administered group−AUC0-120 of the NVP DPP728 (10 mg/kg)-administered group)×100 The lower the % value, the better the degree of improvement in glucose tolerance.

CC#CCn1c(=O)n(C)c2nc(OCC)nc(N3CCNCC3)c21.O=C(O)C(F)(F)F [Example 10, 7-(2-Butynyl)-2-ethoxy-9-methyl-6-(piperazin-1-yl)-7,9-dihydropurin-8-one trifluoroacetic acid salt]
pIC50 [1]: 6.60 | Degree of improvement in glucose tolerance (%) [2]: 17.3%

CC#CCn1c(=O)n(C)c2nc(Oc3ccccc3C#N)nc(N3CCNCC3)c21.O=C(O)C(F)(F)F [Example 13, 2-[7-(2-Butynyl)-9-methyl-8-oxo-6-(piperazin-1-yl)-8,9-dihydro-7H-purin-2-yloxy]benzonitrile trifluoroacetic acid salt]
pIC50 [1]: 7.61 | Degree of improvement in glucose tolerance (%) [2]: 33.5%

C=CCOc1nc(N2CCNCC2)c2c(n1)n(C)c(=O)n2CC#CC.O=C(O)C(F)(F)F [Example 15, 2-Allyloxy-7-(2-butynyl)-9-methyl-6-(piperazin-1-yl)-7,9-dihydropurin-8-one trifluoroacetic acid salt]
pIC50 [1]: 6.50 | Degree of improvement in glucose tolerance (%) [2]: 46%

CC#CCn1c(=O)n(-c2cccnc2)c2nc(Cl)nc(N3CCNCC3)c21.O=C(O)C(F)(F)F [Example 46, 7-(2-Butynyl)-2-chloro-6-(piperazin-1-yl)-9-(pyridin-3-yl)-7,9-dihydropurin-8-one trifluoroacetic acid salt]
pIC50 [1]: 7.37 | Degree of improvement in glucose tolerance (%) [2]: 37%

C=CCn1c(=O)n(CC#CC)c2c(N3CCNCC3)nc(OC)nc21.O=C(O)C(F)(F)F [Example 47, 9-Allyl-7-(2-butynyl)-2-methoxy-6-(piperazin-1-yl)-7,9-dihydropurin-8-one trifluoroacetic acid salt]
pIC50 [1]: 6.78 | Degree of improvement in glucose tolerance (%) [2]: 11.6%

CC#CCn1c(=O)n(CC#CC)c2c(N3CCNCC3)nc(OC)nc21.O=C(O)C(F)(F)F [Example 48, 7,9-Di-(2-butynyl)-2-methoxy-6-(piperazin-1-yl)-7,9-dihydropurin-8-one trifluoroacetic acid salt]
pIC50 [1]: 7.15 | Degree of improvement in glucose tolerance (%) [2]: 37.4%

CC#CCn1c(=O)n(CC2CC2)c2nc(OC)nc(N3CCNCC3)c21.O=C(O)C(F)(F)F [Example 51, 7-(2-Butynyl)-9-cyclopropylmethyl-2-methoxy-6-(piperazin-1-yl)-7,9-dihydropurin-8-one trifluoroacetic acid salt]
pIC50 [1]: 6.89 | Degree of improvement in glucose tolerance (%) [2]: 59.3%

CC#CCn1c(=O)n(CCC)c2nc(OC)nc(N3CCNCC3)c21.O=C(O)C(F)(F)F [Example 52, 7-(2-Butynyl)-2-methoxy-6-(piperazin-1-yl)-9-propyl-7,9-dihydropurin-8-one trifluoroacetic acid salt]
pIC50 [1]: 6.76 | Degree of improvement in glucose tolerance (%) [2]: 29.7%

CC#CCn1c(=O)n(-c2ccccc2)c2nc(OC)nc(N3CCNCC3)c21.O=C(O)C(F)(F)F [Example 54, 7-(2-Butynyl)-2-methoxy-9-phenyl-6-(piperazin-1-yl)-7,9-dihydropurin-8-one trifluoroacetic acid salt]
pIC50 [1]: 7.05 | Degree of improvement in glucose tolerance (%) [2]: 24.4%

CC#CCn1c(=O)n(-c2ccoc2)c2nc(OC)nc(N3CCNCC3)c21.O=C(O)C(F)(F)F [Example 56, 7-(2-Butynyl)-9-(furan-3-yl)-2-methoxy-6-(piperazin-1-yl)-7,9-dihydropurin-8-one trifluoroacetic acid salt]
pIC50 [1]: 7.02 | Degree of improvement in glucose tolerance (%) [2]: 11.3%

CC#CCn1c(=O)n(-c2cccnc2)c2ncnc(N3CCNCC3)c21.O=C(O)C(F)(F)F [Example 61, 7-(2-Butynyl)-6-(piperazin-1-yl)-9-(pyridin-3-yl)-7,9-dihydropurin-8-one trifluoroacetic acid salt]
pIC50 [1]: 7.21 | Degree of improvement in glucose tolerance (%) [2]: 9.4%

CC#CCn1c(=O)n(-c2cnc(OC)nc2)c2ncnc(N3CCNCC3)c21.O=C(O)C(F)(F)F [Example 64, 7-(2-Butynyl)-9-(2-methoxy-pyrimidin-5-yl)-6-(piperazin-1-yl)-7,9-dihydropurin-8-one trifluoroacetic acid salt]
pIC50 [1]: 7.49 | Degree of improvement in glucose tolerance (%) [2]: −11.4%

CC#CCn1c(=O)n(-c2ccnc(Cl)c2)c2ncnc(N3CCNCC3)c21.O=C(O)C(F)(F)F [Example 65, 7-(2-Butynyl)-9-(2-chloro-pyridin-4-yl)-6-(piperazin-1-yl)-7,9-dihydropurin-8-one trifluoroacetic acid salt]
pIC50 [1]: 7.78 | Degree of improvement in glucose tolerance (%) [2]: 9.5%

C=CCn1c(=O)n(CC#CC)c2c(N3CCNCC3)ncnc21.O=C(O)C(F)(F)F [Example 69, 9-Allyl-7-(2-butynyl)-6-(piperazin-1-yl)-7,9-dihydropurin-8-one trifluoroacetic acid salt]
pIC50 [1]: 6.65 | Degree of improvement in glucose tolerance (%) [2]: 44.1%
